Data reported in US10301308B2, “Azetidine derivatives for tau imaging” (Eli Lilly and Company, priority 2015, dated 2019).

Columns and labels:
[1] = target: PHF (tau from Alzheimer's disease donors) (Homo sapiens, UniProt P10636); experiment: Saturation binding of radiolabeled compound to PHF (Kd determination); conditions: tau obtained from donors with Alzheimer's disease
Description: Purified, soluble PHF is isolated from AD brain tissue using a protocol modified from the procedure described by Jicha, et al. (G. A. Jicha, A. O'Donnell, C. Weaver (1999) “Hierarchical phosphorylation of recombinant tau by the paired-helical filament-associated protein kinase is dependent on cyclic AMP-dependent protein kinase” J Neurochem. 72(1):214). Briefly, AD cortex is homogenized using a handheld Kinematica Polytron, followed by high pressure batch—gas expansion using a Parr Cell disruption bomb. Crude homogenate is centrifuged at 28 kg to pellet cell debris. […]
The dissociation constant [Kd] for the radiolabeled compound 3-(3-[18F]-fluoroazetidin-1-yl)-8-methylbenzo[4,5]imidazol[1,2-a]pyridine is determined by saturation binding, in which the total and nonspecific binding of the radioligand are measured at various radioligand concentrations. […] After incubation for 1.5 h at 37° C., the bound radioactivity is harvested by vacuum filtration onto Millipore MultiScreenHTS 96-well glass fiber FB filter plates, using a Millipore MultiScreenHTS Vacuum Manifold, followed by five washes with PBS. Filters containing bound 3-(3-[18F]-fluoroazetidin-1-yl)-8-methylbenzo[4,5]imidazo[1,2-a]pyridine are assayed for radioactivity in a Wizard 2480 automatic gamma-counter [Perkin Elmer]. […]

[2] = tested on: native tau aggregates vs native β-amyloid aggregates in human brain sections; experiment: Autoradiography selectivity towards tau versus β amyloid in AD human brain tissue; format: binding
Description: Based on the anti-tau and anti-amyloid immunostaining results of brain sections, three groups of human brain sections are selected for autoradiography experiments to determine the native tau-binding selectivity of 3-(3-[18F]-fluoroazetidin-1-yl)-8-methylbenzo[4,5]imidazo[1,2-a]pyridine. Group A are tau-rich AD brain slices (labeled as Tau+Aβ+), Group B are tau-poor AD brain slices (marked as Tau-Aβ+), and Group C are Tau-Aβ− normal brain slices. […] The human AD brain sections in Group B are #33562, #32656, #33998, #35682, and #33563. The normal human brain sections in group C are #29092 and #32566. Tissue slices from the same donors are used to calculate selectivity for all three compounds for testing according to Assay Example 5. Autoradiography is performed for each of these three groups of brains on adjacent 10 μm sections with the amyloid tracer [18F]W372 to quantify the β-amyloid burden. [18F]W372 is a selective amyloid binding tracer discovered by Siemens and evaluated under IND 105173. Sections are covered with 0.5 ml of 3-(3-[18F]-fluoroazetidin-1-yl)-8-methylbenzo[4,5]imidazo[1,2-a]pyridine (in 2.5:2.5:95 DMSO:EtOH:1×PBS, about 20 μCi/slide) and incubated for 1.5 hrs. Then successive washing cycles (1 min PBS, 2 min 30% EtOH/PBS, 2 min 70% EtOH/PBS, 1 min PBS) are employed to remove any unbound tracer. The sections are air dried, placed on a phosphorimaging plate (Fuji IP plate), and exposed overnight. The IP plate is read using a GE Healthcare Life Sciences Typhoon FLA 7000 Phosphorimager. The signal intensity of the grey matter is measured using Fujifilm Multi Gauge software. After subtracting the background signal (signal in the cortex region of Group C), the signal of individual sections of Group A and B are normalized with corresponding signal from autoradiography of the respective adjacent sections with [18F]W372. The calculations are based on Group B brain sections #32656 and #33998, which have undetectable tau pathology by immunohistochemistry. The normalized signal for 3-(3-[18F]-fluoroazetidin-1-yl)-8-methylbenzo[4,5]imidazo[1,2-a]pyridine in Group B brain sections is the relative signal level of 3-(3-[18F]-fluoroazetidin-1-yl)-8-methylbenzo[4,5]imidazo[1,2-a]pyridine to [F-18]W372 resulting from binding to native β-amyloid aggregates. The binding level of 3-(3-[18F]-fluoroazetidin-1-yl)-8-methylbenzo[4,5]imidazo[1,2-a]pyridine to native tau-aggregates in Group A sections is estimated by subtracting the amount of the total signal attributable to binding to 3-amyloid (calculated by multiplying the total signal from [18F]W372 binding to β-amyloid in the adjacent section by the relative signal of 3-(3-[18F]-fluoroazetidin-1-yl)-8-methylbenzo[4,5]imidazo[1,2-a]pyridine to [18F]W372 determined from the Group B sections). The resulting difference is then divided by the signal attributable to binding to β-amyloid to estimate the selectivity of 3-(3-[18F]-fluoroazetidin-1-yl)-8-methylbenzo[4,5]imidazo[1,2-a]pyridine. […] The selectivity of 3-(3-[18F]-fluoroazetidin-1-yl)-8-methylbenzo[4,5]imidazo[1,2-a]pyridine binding to native tau aggregates vs. binding native β-amyloid aggregates is reflected by the ratio of Group A (Tau+Aβ+) signal to the signal of the brain sections #32656 and #33998.

PHF (tau from Alzheimer's disease donors), sequence (P10636 623-708 limits assumed): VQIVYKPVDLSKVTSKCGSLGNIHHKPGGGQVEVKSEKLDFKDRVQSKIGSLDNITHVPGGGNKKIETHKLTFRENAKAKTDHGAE

Cc1ccc2nc3cc(N4CC([18F])C4)ccn3c2c1 [Compound 8, 3-(3-[18F]-fluoroazetidin-1-yl)-8-methylbenzo[4,5]imidazo[1,2-a]pyridine]
Kd [1]: 0.85 ± 0.02 nM | selectivity ratio for Tau:Aβ ([2]; 5 Tau+Aβ+ and 2 Tau-Aβ+ brain specimens): approximately 26.6±4.5 | autoradiography signal on grey matter (cortex region) ([2]; Group A (Tau+Aβ+) sections): Strong signal | autoradiography signal on cortex regions ([2]; Group B (Tau-Aβ+) sections): weak or no signal | autoradiography signal ([2]; Group C (Tau-Aβ−) normal brain sections): No autoradiography signal | grey matter to white matter (GM/WM) signal ratio ([2]; autoradiography, Tau+Aβ+ brain specimens): approximately 17.3±1.7 | selectivity of binding to native tau aggregates vs native β-amyloid aggregates ([2]; grey matter region of human AD brains): approximately 27 fold | autoradiography signal on normal brain sections, grey vs white matter ([2]; normal brain sections): weak and even
